“Also recorded” adds a separate entry of the source. Read-outs that look alike come from different tables or passages of the source.
Columns and labels:
αTC1–6 cells = assay: Catecholamine secretion assay with HPLC measurement; type: cell-based, mouse
Method: Cell-based catecholamine secretion assays were conducted as reported earlier[7]. Briefly, αTC1–6 cells were seeded into 24-well plates at an initial seeding density of 5 × 10^5 cells/well in complete DMEM medium. […] Some samples were also supplemented with 10 μM L-DOPA to boost cell catecholamine production in the presence or absence of a monoamine oxidase inhibitor cocktail (10 μM: deprenyl, pargyline, clorgyline). […] Lysates were collected and centrifuged at 17,000 rpm for 5 min at 4 °C to pellet cell debris and then added into HEGA buffer for High-Performance Liquid Chromatography (HPLC) analysis.
Assay samples were filtered (0.20 μm filter; ThermoFisher Scientific) and analyzed via HPLC with electrochemical detection as previously reported[7]. Briefly, samples were separated on a C18 reverse-phase column (Hypersil ODS C18 column, ThermoFisher Scientific) with MD-TM mobile phase (ThermoFisher Scientific).

[1] = test system: glucose-stimulated insulin secretion (GSIS) from β-cells in human islets; assay: Islet secretion assay: insulin secretion from human islets; type: cell-based; conditions: for increase in GSIS compared to vehicle / effect on glucose-stimulated insulin secretion: 1 µM; for effect on glucose-stimulated insulin secretion: relative to vehicle; for IC50: read-out: IC50, reduction of insulin secretion (GSIS)
Method: (§1) Islets were freshly isolated via collagenase digestion of pancreata as described previously. Human pancreatic islets were isolated via collagenase digestion and purified from four non-diabetic human donors (Supplementary Table S1) as described previously. Following isolation and purification, human or mouse islets were plated at a density of 15 islets per well into 24-well tissue culture-treated plates. […] The islets were used immediately after overnight recovery for hormone secretion assays.
(§2) Measurements of hormone secretion were performed using static incubation of pancreatic islets. […] Islets were then transferred to a 24-well plate containing KRB buffer also supplemented with 25 mM glucose. Drug treatments were added in KRB (25 mM glucose) (1 hr, 37 °C, 5% CO2). After treatment, KRB was supplemented with a protease inhibitor cocktail (1 tablet/10 mL KRB; Roche Diagnostics, Mannheim, Germany) to prevent glucagon degradation. Supernatants were collected and placed on ice to further prevent glucagon degradation and precipitation. Undiluted supernatants and 1:2 dilutions were used for the glucagon detection assay, while 1:10 dilutions were used for insulin measurement; all dilutions were in KRB.

[2] = test system: α-cell glucagon secretion in human islets; assay: Islet secretion assay: glucagon secretion from human islets; type: cell-based; conditions: for increase in glucagon secretion compared to vehicle / effect on α-cell glucagon secretion: 1 µM; for effect on α-cell glucagon secretion: relative to vehicle; for effect on glucagon secretion: increasing concentrations, relative to vehicle control
Method: as §1, with “For mouse pancreatic islet preparations, islets were obtained from 8 to 10-week-old wild-type BALB/c mice. Islets” for “Islets”
(§3) Measurements of hormone secretion were performed using static incubation of pancreatic islets. […] The increased glucose (25 mM) was used to inhibit α-cell glucagon secretion to diminish glucagon levels to basal levels to improve the dynamic range of the assay and thus effectively unmask the role of ligand-mediated glucagon secretion as described earlier. Islets were then transferred to a 24-well plate containing KRB buffer also supplemented with 25 mM glucose. Drug treatments were added in KRB (25 mM glucose) (1 hr, 37 °C, 5% CO2). After treatment, KRB was supplemented with a protease inhibitor cocktail (1 tablet/10 mL KRB; Roche Diagnostics, Mannheim, Germany) to prevent glucagon degradation. Supernatants were collected and placed on ice to further prevent glucagon degradation and precipitation. Undiluted supernatants and 1:2 dilutions were used for the glucagon detection assay, while 1:10 dilutions were used for insulin measurement; all dilutions were in KRB.

[3] = test system: α2A-adrenergic receptor KO INS-1E cells; conditions: α2A-adrenergic receptor KO INS-1E cells compared to parental
Source text: (§5) We employed a CRISPR-Cas9-mediated approach to delete endogenous α2A-adrenergic receptor expression in INS-1E cells. Since INS-1E cells are rat-derived, we used the mRNA sequence encoding rat α2A-adrenergic receptor as a template to generate guide RNA (gRNA) to disrupt the promoter region of the Adra2a gene (gRNA sequence: 5′-[sequence]-3′, positions 57–76). We then generated a construct containing the Adra2a gRNA sequence along with cDNA sequences encoding Cas9 and GFP (pENTR-Adra2a-sgRNA-Cas9-GFP). 1–5 μg of the construct was subsequently transfected into low-passage INS-1E cells using Lipofectamine 3000 (ThermoFisher Scientific) according to manufacturer instructions. 24–48 h post-transfection, the transfected cells were identified and collected by fluorescence-activated cell sorting based on GFP fluorescence using a BD FACSAria II sorter (BD Biosciences, San Jose, CA) equipped with a GFP filter (530/30 nm).
(§6) Insulin secretion assays in INS-1E cells were conducted as described earlier[7],[42]. […] Insulin secretion was carried out 48 h after seeding the cells. On an experimental day, cells were first glucose-starved in KRB (0 mM glucose) for 1 h (37 °C, 5% CO2), followed by glucose stimulation with KRB supplemented with 20 mM glucose in the presence or absence of drugs for 90 min (37 °C, 5% CO2). The supernatants were collected and diluted 1:10 in KRB for the insulin detection assay.
(§7) The assay is based on homogeneous time-resolved fluorescence resonance energy transfer (HTRF) technology. Standard curve and assay samples (10 μL/well) were plated into a 384-well white, low-volume, round-bottom plate (Corning, Corning, NY). […] Secreted insulin was similarly detected and measured by an HTRF approach using the insulin high range detection kit (Cisbio Bioassays) as described previously[42]. The two anti-insulin antibodies were mixed in a 1:2 donor (cryptate)/acceptor (XL665) ratio in the insulin assay detection buffer (Cisbio Bioassays) and 15 µL of the insulin antibody mix was added per well. For both glucagon and insulin HTRF assays, the incubation time was 2 h at room temperature. […] The raw data were obtained in ng/mL insulin secreted and pg/mL glucagon secreted. Dose-response curves were fit via non-linear regression of Log[ligand] versus normalized % glucagon or insulin secretion. Investigators were blinded to the identity of samples during the initial analysis.

parental INS-1E cells = assay: Glucose-stimulated insulin secretion (GSIS) in parental INS-1E cells; type: cell-based; conditions: Rattus norvegicus, 1.5 h, read-out: IC50, inhibition of GSIS
[4] = test system: α2A-adrenergic receptor KO INS-1E cells; assay: cells; conditions: Rattus norvegicus, read-out: IC50, inhibition of GSIS
Source text: as §5, §6, §7

[5] = molecular target: T1, endogenous α2A-adrenergic receptors in INS-1E cells (Rattus norvegicus, UniProt P22909); assay: [3H]RX821002 radioligand binding, INS-1E cell membranes; conditions: for Bmax, saturation binding / Kd: parental INS-1E cell membranes; for Kd: read-out: KD, saturation binding
T1 construct: adherent INS-1E cells expressing the endogenous α2A-adrenergic receptors; endogenous in cells; host or cells: INS-1E (rat insulinoma) cell membranes
T1 sequence (P22909 1-465): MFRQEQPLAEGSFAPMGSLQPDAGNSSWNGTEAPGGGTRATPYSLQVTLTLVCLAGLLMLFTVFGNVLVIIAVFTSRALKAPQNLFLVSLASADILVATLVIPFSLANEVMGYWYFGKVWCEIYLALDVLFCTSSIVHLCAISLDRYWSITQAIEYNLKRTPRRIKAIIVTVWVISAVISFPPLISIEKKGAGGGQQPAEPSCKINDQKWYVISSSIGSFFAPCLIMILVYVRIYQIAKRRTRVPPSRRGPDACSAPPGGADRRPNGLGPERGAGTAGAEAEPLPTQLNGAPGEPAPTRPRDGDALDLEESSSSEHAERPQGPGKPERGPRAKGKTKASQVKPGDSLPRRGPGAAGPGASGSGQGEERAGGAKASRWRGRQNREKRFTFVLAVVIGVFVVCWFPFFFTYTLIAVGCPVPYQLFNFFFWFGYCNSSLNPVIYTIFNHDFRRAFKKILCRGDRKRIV
Method: (§4) Radioligand binding and competition assays were conducted as previously described. Briefly, adherent INS-1E cells expressing the endogenous α2A-adrenergic receptors or transfected HEK-293 cells overexpressing human α2A-adrenergic receptor were dissociated from plates, and intact cells collected by centrifugation (600–900 g, 5–10 min, 4 °C). Cells were resuspended and lysed using 5 mM Tris-HCl and 5 mM MgCl2 (pH 7.4, 4 °C). Cell lysates were pelleted by centrifugation at 30,000 × g for 30 min and resuspended in Earle’s Balanced Salt Solution with Ca^2+ (pH 7.4). For saturation binding assays, cell lysates (100 µL, 2–5 μg of protein for HEK-293 cells and 10–20 μg of protein for INS-1E cells, quantified by the Bradford Assay) were incubated with the indicated concentrations of [^3H]RX821002 (90 min, room temperature). […] The bound ligand was separated from free ligand by filtration through a Perkin Elmer Unifilter-96 GF/C 96-well microplate using the Perkin Elmer Unifilter-96 Harvester (Perkin Elmer, Waltham, MA), followed by three washes with ice-cold assay buffer. After drying, a liquid scintillation cocktail (MicroScint PS; Perkin Elmer) was added to each well, and plates were sealed and analyzed on a Topcount NXT liquid scintillation counter (Perkin Elmer). Ki values were calculated from observed IC50 values using the Cheng–Prusoff equation[47].

[6] = test system: glucose-stimulated insulin secretion (GSIS) from β-cells in mouse islets; assay: Islet secretion assay: insulin secretion from mouse islets; type: cell-based
Method: as §1, §2

α2A-adrenergic receptor = α2A-adrenergic receptor (Rattus norvegicus, UniProt P22909); assay: NanoBRET Gαi1 recruitment to α2A-adrenergic receptor; type: cell-based
Source text: For nanoBRET experiments, we used receptor constructs consisting of either human D2R (DRD2) and rat α2A-adrenergic receptor (Adra2a) cDNAs fused to HaloTag at the C-terminus (α2A-AR-HaloTag and D2R-HaloTag). Both receptors were also tagged at the N terminus with an IL6 signal sequence followed by a HiBiT tag. […] All constructs were cloned into a pcDNA3.1(+) vector backbone (ThermoFisher Scientific) and confirmed by sequencing analysis.
For NanoLuc-only controls, empty pcDNA3.1(+) vector was used to maintain a constant amount of total transfected DNA.
Cells were harvested, washed, and resuspended in fresh medium 24 h post-transfection. Approximately 5 × 10^4 cells/well were distributed in pre-coated 96-well plates and allowed to adhere overnight (37 °C, 5% CO2). […] Following labeling, cells were washed once with HBSS, and 5 μM furimazine (substrate for NanoLuc) was added to every well. Drugs were then added to the samples and incubated for […]. Plates were read 5 min following drug addition using a PheraStar FSX equipped with a nanoBRET-compatible optic module (LUM 610 450) (BMG Labtech). […] EC50 values were calculated via a non-linear regression analysis via GraphPad software.

[7] = test system: α-cell glucagon secretion from mouse islets; assay: Islet secretion assay: glucagon secretion from mouse islets; type: cell-based; conditions: for EC50: read-out: EC50, increase in secreted glucagon
Method: as §1, with “For mouse pancreatic islet preparations, islets were obtained from 8 to 10-week-old wild-type BALB/c mice. Islets” for “Islets”
as §3

[8] = molecular target: T2, human α2A-adrenergic receptor (Homo sapiens, UniProt P08913); assay: [3H]RX821002 radioligand binding, HEK-293 cells overexpressing α2A-adrenergic receptor; conditions: membranes from HEK-293 cells overexpressing human α2A-adrenergic receptor
T2 construct: expressed in transfected cells; host or cells: HEK-293 (ATCC CRL-1573), transient transfection
T2 sequence (P08913 1-465): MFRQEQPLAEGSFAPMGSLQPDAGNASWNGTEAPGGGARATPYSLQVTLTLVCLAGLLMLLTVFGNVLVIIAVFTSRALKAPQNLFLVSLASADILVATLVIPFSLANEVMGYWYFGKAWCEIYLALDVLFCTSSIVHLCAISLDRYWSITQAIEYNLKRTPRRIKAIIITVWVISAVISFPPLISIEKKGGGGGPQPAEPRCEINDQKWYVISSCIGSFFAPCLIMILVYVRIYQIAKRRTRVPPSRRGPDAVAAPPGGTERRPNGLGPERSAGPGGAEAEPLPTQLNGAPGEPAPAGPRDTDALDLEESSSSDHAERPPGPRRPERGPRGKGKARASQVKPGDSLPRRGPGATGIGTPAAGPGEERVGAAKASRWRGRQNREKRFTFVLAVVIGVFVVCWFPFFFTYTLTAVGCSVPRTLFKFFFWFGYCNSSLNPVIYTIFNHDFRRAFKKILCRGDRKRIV
Method: as §4

[9] = test system: membranes from α2A-adrenergic receptor KO INS-1E cells; assay: [3H]RX821002 saturation binding, α2A-adrenergic receptor KO INS-1E cell membranes; set-up: species or system rat
Method: as §4

[10] = 10 μM L-DOPA supplementation, compared to untreated cells
[11] = parental INS-1E cells, 20 mM glucose, 90 min

α2A-adrenergic receptor, sequence (P63096 2-354 partner limits assumed, one chain of several): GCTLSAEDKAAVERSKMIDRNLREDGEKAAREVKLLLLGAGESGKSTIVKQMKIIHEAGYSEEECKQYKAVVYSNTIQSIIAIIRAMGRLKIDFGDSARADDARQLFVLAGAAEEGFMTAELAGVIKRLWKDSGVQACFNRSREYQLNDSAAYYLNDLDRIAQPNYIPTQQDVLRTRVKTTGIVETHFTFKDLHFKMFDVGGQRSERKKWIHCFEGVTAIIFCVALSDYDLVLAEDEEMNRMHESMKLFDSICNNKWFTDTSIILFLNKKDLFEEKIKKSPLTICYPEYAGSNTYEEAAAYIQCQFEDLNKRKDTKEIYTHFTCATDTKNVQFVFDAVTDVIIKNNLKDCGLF

N[C@@H](Cc1ccc(O)c(O)c1)C(=O)O [L-DOPA, L-3,4-dihydroxyphenylalanine]
fold increase in NE (αTC1–6 cells; [10]): 3 fold
fold increase in α-cell DA secretion (αTC1–6 cells; [10]): 60 fold
DA levels, fold more compared to NE (αTC1–6 cells; pre-incubation with 10 μM L-DOPA): 27 fold

CN1CCN(C2=Nc3cc(Cl)ccc3Nc3ccccc32)CC1 [clozapine]
increase in GSIS compared to vehicle ([1]; human islets): 19.8 ± 4.0%
effect on glucose-stimulated insulin secretion ([1]; human islets): raised glucose-stimulated insulin secretion
increase in glucagon secretion compared to vehicle [2]: 200.2 ± 21.7%
effect on α-cell glucagon secretion [2]: significantly raised α-cell glucagon secretion

Cc1cc2c(s1)Nc1ccccc1N=C2N1CCN(C)CC1 [olanzapine]
increase in GSIS compared to vehicle ([1]; human islets): 43.6 ± 3.1%
effect on glucose-stimulated insulin secretion ([1]; human islets): raised glucose-stimulated insulin secretion
increase in glucagon secretion compared to vehicle [2]: 105.7 ± 23.4%
effect on α-cell glucagon secretion [2]: significantly raised α-cell glucagon secretion

Clc1cccc(Cl)c1N=C1NCCN1 [clonidine]
GSIS inhibition in KO cells [3]: attenuated; also recorded: virtually eliminated
IC50 (parental INS-1E cells; [11]): 12.7 ± 1.3 nM

NCCc1ccc(O)c(O)c1 [DA, Dopamine]
IC50 [4]: 474 ± 2.5 nM
IC50 ([1]; Homo sapiens): 26.2 ± 2.9 nM
IC50 (parental INS-1E cells; INS-1E): 1500 ± 2 nM
Ki [5]: 164 ± 1.2 nM
IC50 ([6]; Mus musculus, read-out: IC50, reduction of insulin secretion (GSIS), mouse islets): 1290 ± 2 nM
IC50 ([6]; read-out: IC50, reduction of insulin secretion (GSIS), mouse islets): 1300 ± 2 nM
EC50 (α2A-adrenergic receptor): 2100 ± 2 nM
EC50 ([7]; Mus musculus, 1 h): 14.9 ± 3.8 nM
effect on glucagon secretion [2]: biphasic glucagon secretory response

CC(C)NC[C@H](O)COc1cccc2ccccc12 [propranolol, S-(−)-propranolol]
effect of propranolol on DA-induced glucagon secretion ([7]; mouse islets, propranolol 100 nM pre-treatment prior to DA): attenuates DA’s enhancement of glucagon secretion; also recorded: eliminated DA-induced increases in α-cell glucagon secretion

NC[C@H](O)c1ccc(O)c(O)c1 [NE, norepinephrine]
IC50 [4]: 1400 ± 2 nM
IC50 ([1]; Homo sapiens, human islets): 787.2 ± 1.3 nM
IC50 ([1]; human islets): 787 ± 1.3 nM
IC50 (parental INS-1E cells; [11]): 39.8 ± 1.5 nM
IC50 ([6]; Mus musculus, mouse islets, read-out: IC50, reduction of insulin secretion (GSIS)): 178 ± 2.4 nM
IC50 ([6]; mouse islets, read-out: IC50, reduction of insulin secretion (GSIS)): 179 ± 2.4 nM
EC50 ([7]; Mus musculus, 1 h, mouse islets, 25 mM glucose, 1 hr): 142 ± 2.3 nM
EC50 ([7]; mouse islets, 25 mM glucose, 1 hr): 142 ± 2.3 nM
effect on glucagon secretion [2]: significantly enhance glucagon secretion; also recorded: significantly increased α-cell glucagon secretion

COC1(C2=NCCN2)COc2ccccc2O1 (centres unmarked) [[^3H]RX821002]
Bmax, saturation binding [8]: 5691 ± 103 fmol/mg protein
Bmax, saturation binding ([8]; listed as [3H]RX821002): 5691±103 fmol/mg protein
Kd ([8]; read-out: KD, saturation binding): 0.67 ± 0.05 nM
Bmax, saturation binding [5]: 110 ± 3.3 fmol/mg protein
Bmax, saturation binding ([5]; listed as [3H]RX821002): 110±0.02 fmol/mg protein
Kd ([5]; listed as [3H]RX821002): 0.098 ± 0.02 nM
Kd [5]: 0.1 ± 0.02 nM
Bmax, saturation binding [9]: 29.1 ± 4.3 fmol/mg protein

O=C(CCCN1CCC(O)(c2ccc(Cl)cc2)CC1)c1ccc(F)cc1 [haloperidol]
increase in GSIS compared to vehicle ([1]; human islets): 24.1 ± 4.6%
effect on glucose-stimulated insulin secretion ([1]; human islets): raised glucose-stimulated insulin secretion
increase in glucagon secretion compared to vehicle [2]: 67.1 ± 13.6%
effect on α-cell glucagon secretion [2]: significantly raised α-cell glucagon secretion

Reference: publication PMC7884786 (Translational Psychiatry, 2021)
